The data set concerns CCRIS mutagenicity, Ames/micronucleus/aberration tests. Put plainly: CCRIS mutagenicity studies.

Activity calls are given as the source filed them. No rule for the calls is given here.

With `OCCO`, the mutagenic call is, setting by setting: (Test System: AMES SALMONELLA TYPHIMURIUM, Strain/Indicator: TA98, Metabolic Activation: HAMSTER, LIVER, S-9, AROCLOR 1254 (10%), Method: PREINCUBATION) “inactive; negative”; (Test System: AMES SALMONELLA TYPHIMURIUM, Strain/Indicator: TA98, Metabolic Activation: NONE, Method: PREINCUBATION) “inactive; negative”; (Test System: AMES SALMONELLA TYPHIMURIUM, Strain/Indicator: TA98, Metabolic Activation: RAT LIVER S-9, PHENOBARBITAL AND BETA-NAPHTHOFLAVONE, Method: PREINCUBATION) “inactive; negative”; (Test System: AMES SALMONELLA TYPHIMURIUM, Strain/Indicator: TA98, Metabolic Activation: RAT, LIVER, S-9, AROCLOR 1254 (10%), Method: PREINCUBATION) “inactive; negative”; (Test System: AMES SALMONELLA TYPHIMURIUM, Strain/Indicator: TA100, Metabolic Activation: HAMSTER, LIVER, S-9, AROCLOR 1254 (10%), Method: PREINCUBATION) “inactive; negative”; (Test System: AMES SALMONELLA TYPHIMURIUM, Strain/Indicator: TA100, Metabolic Activation: NONE, Method: PREINCUBATION) “inactive; negative”. In addition, the mutagenic call was “inactive; negative” (Test System: AMES SALMONELLA TYPHIMURIUM, Strain/Indicator: TA100, Metabolic Activation: RAT LIVER S-9, PHENOBARBITAL AND BETA-NAPHTHOFLAVONE, Method: PREINCUBATION); “inactive; negative” (Test System: AMES SALMONELLA TYPHIMURIUM, Strain/Indicator: TA100, Metabolic Activation: RAT, LIVER, S-9, AROCLOR 1254 (10%), Method: PREINCUBATION); “inactive; negative” (Test System: AMES SALMONELLA TYPHIMURIUM, Strain/Indicator: TA1535, Metabolic Activation: HAMSTER, LIVER, S-9, AROCLOR 1254 (10%), Method: PREINCUBATION); “inactive; negative” (Test System: AMES SALMONELLA TYPHIMURIUM, Strain/Indicator: TA1535, Metabolic Activation: NONE, Method: PREINCUBATION); “inactive; negative” (Test System: AMES SALMONELLA TYPHIMURIUM, Strain/Indicator: TA1535, Metabolic Activation: RAT LIVER S-9, PHENOBARBITAL AND BETA-NAPHTHOFLAVONE, Method: PREINCUBATION); “inactive; negative” (Test System: AMES SALMONELLA TYPHIMURIUM, Strain/Indicator: TA1535, Metabolic Activation: RAT, LIVER, S-9, AROCLOR 1254 (10%), Method: PREINCUBATION). For the same molecule, the mutagenic call was “inactive; negative” (Test System: AMES SALMONELLA TYPHIMURIUM, Strain/Indicator: TA1537, Metabolic Activation: HAMSTER, LIVER, S-9, AROCLOR 1254 (10%), Method: PREINCUBATION); “inactive; negative” (Test System: AMES SALMONELLA TYPHIMURIUM, Strain/Indicator: TA1537, Metabolic Activation: NONE, Method: PREINCUBATION); “inactive; negative” (Test System: AMES SALMONELLA TYPHIMURIUM, Strain/Indicator: TA1537, Metabolic Activation: RAT LIVER S-9, PHENOBARBITAL AND BETA-NAPHTHOFLAVONE, Method: PREINCUBATION); “inactive; negative” (Test System: AMES SALMONELLA TYPHIMURIUM, Strain/Indicator: TA1537, Metabolic Activation: RAT, LIVER, S-9, AROCLOR 1254 (10%), Method: PREINCUBATION); “inactive; negative” (Test System: E.COLI, Strain/Indicator: WP2UVRA, Metabolic Activation: NONE, Method: PREINCUBATION); “inactive; negative” (Test System: E.COLI, Strain/Indicator: WP2UVRA, Metabolic Activation: RAT LIVER S-9, PHENOBARBITAL AND BETA-NAPHTHOFLAVONE, Method: PREINCUBATION). Besides, the mutagenic call runs as follows: (Test System: MOUSE LYMPHOMA, Strain/Indicator: L5178Y (TK+/TK-), Metabolic Activation: NONE, Method: SUSPENSION/PLATE) “inactive; negative”; (Test System: MOUSE LYMPHOMA, Strain/Indicator: L5178Y (TK+/TK-), Metabolic Activation: RAT, LIVER, S-9, AROCLOR 1254, Method: SUSPENSION/PLATE) “inactive; negative”.
On to `CC(=O)C[C@@H]1CCCCCC(=O)O[C@H](CC(C)=O)CCC(=O)CCC(=O)O1`, for which the mutagenic call (Test System: CHINESE HAMSTER V-79, Strain/Indicator: V-79 (HPRT)/6-THIOGUANINE, Metabolic Activation: NONE) was “active; positive”.
